# In patent US20170021014A1, “VACCINE ADJUVANTS FOR CYTOMEGALOVIRUS PREVENTION AND TREATMENT” (THE JOHNS HOPKINS UNIVERSITY, priority 2015, published 2017):
# Key:
# [1] = tested on: pp28-luciferase Towne strain; assay: pp28-luciferase HCMV replication assay (first and second cycle); type: cell-based, human cytomegalovirus; details: for luciferase activity reduction, second cycle: MOI 1, second cycle 72 h
# Procedure: (§1) Human Foreskin Fibroblasts (HFFs) passage 12-16 (ATCC, CRL-2088™) were grown in Dulbecco's Modified Eagle Medium (DMEM) containing 10% fetal bovine serum (FBS) (Gibco, Carlsbad, Calif.) in a 5% CO2 incubator at 37° C. The generation of NOD2-KD HFFs (HFF-shNOD2) and control cells (HFF-GIPZ) was reported. One day prior to infection or treatment, 8×10^4 cells were seeded into each well of 12-well tissue culture plates. Multiplicities of infection were specified for each experiment. The Towne HCMV strain was obtained from ATCC (VR-977). The pp28-luciferase Towne strain which expresses luciferase under the control of the pp28 late promoter has been described. Luciferase activity was measured at 72 or 96 hours post infection (hpi) using the Glomax-Multi+ Detection System (Promega, Madison, Wis.). In second cycle replication assays cell free supernatants from HFFs infected with pp28-luciferase Towne were collected 4 days post completion of first replication cycle (5-10% of total volume/well), and used for infection of fresh HFFs seeded into 12-well plates. Cell lysates were collected after 72 h for luciferase activity. Supernatants from the first cycle were also used to measure virus titer in 12-well plates and plaques were counted at day 8 post infection. A purified preparation of the pp28-luciferase Towne strain was prepared by ultracentrifugation using sucrose gradient. The HCMV TB40 strain was obtained from ATCC (VR-1578). Clinical isolates of HCMV were obtained from the microbiology laboratory at Johns Hopkins Hospital with no identifiers that could be linked to a patient. The Johns Hopkins School of Medicine Office of Human Subject Research Institutional Review Board (IRB-X) determined that the research qualified for an exemption.
# NOD2 mRNA = assay: qRT-PCR of NOD2 mRNA in HFFs; type: cell-based, Human; details: for NOD2 induction by MDP: HCMV-infected, 36 hpi
# Procedure: Total RNA was isolated from cells using RNAeasy Mini kit (Qiagen, Georgetown, Md.) according to manufacturer's instructions. RevertAid first strand cDNA synthesis kit (Fermentas life sciences, Cromwell Park, Md.) was used to synthesize first strand cDNA from total RNA using oligo-dT primers. Negative reverse-transcriptase (−RT) reactions were included to ensure the specificity of qRT-PCR reactions. Synthesis of first strand cDNA from mRNA template was carried out at 42° C. for 1 h. Quantitative RT-PCR was performed using specific primers and SYBR green (Fermentas life science) with two-step cycling protocol (95° C. for 15 s, 60° C. for 1 min). All reactions were performed in triplicates and GAPDH was used as internal control. The expression level of the tested genes was normalized to the expression of GAPDH.
# HCMV TB40 = assay: Plaque reduction assay in HFFs, HCMV TB40; type: cell-based, human cytomegalovirus; details: MDP 10 μg/mL pretreatment 72 h, 100 PFU/well, 10 days
# Procedure: (§2) A plaque reduction assay was performed in HFFs to determine the effects of MDP treatment either before or after infection on virus replication. HFFs were seeded into 12-well plates (2×10^5 cells/well) and infected with Towne HCMV at approximately 100 plaques/well. After 90 minutes, media were aspirated, and DMEM containing 0.5% carboxymethyl-cellulose (CMC), 4% fetal bovine serum (FBS), and MDP at final concentration of 10 μg/mL were added into duplicate wells. In pretreatment experiments HFFs were first treated with MDP (10 μg/mL) for 72 h after which infection with the Towne or TB40 strains was carried out at approximately 100 plaques/well. After 90 minute adsorption, media were aspirated, and DMEM containing 0.5% CMC and 4% FBS were added into duplicate wells. After incubation at 37° C. for 8 days (Towne) or 10 days (TB40) the overlay was removed and plaques were counted after crystal violet staining.
# [2] = tested on: pp28-luciferase Towne strain; assay: Virus titration of first cycle supernatants by plaque assay; type: cell-based, human cytomegalovirus; details: MDP-pretreated cells, plaques at 8 days
# Procedure: as §1, with “Cell lysates were collected after 72 h for luciferase activity.” left out, “A purified preparation of the pp28-luciferase Towne strain was prepared by ultracentrifugation using sucrose gradient. The HCMV TB40 strain was obtained from ATCC (VR-1578). Clinical isolates of HCMV were obtained from the microbiology laboratory at Johns Hopkins Hospital with no identifiers that could be linked to a patient.” left out
# secreted IFN-β = assay: IFN-β specific ELISA of supernatants; type: cell-based, Human; details: MDP pretreatment 18 or 72 h, MOI 1, 24 h
# Procedure: The effect of MDP pretreatment on levels of secreted IFN-β in supernatants from non-infected or HCMV-infected HFFs was measured by IFN-β specific ELISA kit (PBL Assay Science, Piscataway, N.J.).
# HCMV Towne = assay: Plaque reduction assay in HFFs, HCMV Towne; type: cell-based, human cytomegalovirus
# Procedure: as §2
structure (smiles),measurement,setting,value
"CC(=O)N[C@H]1C(O)O[C@H](CO)[C@@H](O)[C@@H]1O[C@H](C)C(=O)N[C@@H](C)C(=O)N[C@H](CCC(=O)O)C(N)=O (mixture of isomers) [MDP, Muramyl dipeptide]","pp28 activity reduction, first cycle","[1]; MDP pretreatment 10 μg/mL 72 h, MOI 0.1, 96 hpi",80%
same,"pp28 expression (luciferase activity), first cycle","[1]; MDP pretreatment 18 or 72 h, MOI 1, 96 hpi",modest reduction
same,"luciferase activity reduction, second cycle",[1]; MDP pretreatment 18 h,approximately 45%
same,"luciferase activity reduction, second cycle",[1]; MDP pretreatment 72 h,~75%
same,NOD2 induction by MDP,"NOD2 mRNA; MOI 0.1, MDP after infection",6.5 fold
same,NOD2 induction by MDP,"NOD2 mRNA; MOI 1, MDP after infection",2.5 fold
same,NOD2 mRNA induction,NOD2 mRNA; MDP pretreatment 72 h then HCMV Towne MOI 1 for 24 h (infection only 50-fold),265 fold
same,induction of NOD2 mRNA,"NOD2 mRNA; non-infected HFFs, MDP 10 μg/mL, 36 h",4 fold
same,induction of NOD2 mRNA,"NOD2 mRNA; non-infected cells, 72 h MDP treatment then 24 h medium",3 fold
same,plaque number reduction,HCMV TB40,~70%
same,reduction in virus titer,[2],6 fold
same,secreted IFN-β,secreted IFN-β,increased with the duration of MDP-pretreatment
same,plaque number,"HCMV Towne; MDP 10 μg/mL after infection, 100 PFU/well, counted after 8 days",reduced plaque number
same,plaque number reduction,"HCMV Towne; MDP 10 μg/mL pretreatment 72 h, 100 PFU/well, 8 days",approximately 90%
same,number of plaques,"HCMV Towne; control GIPZ cells, MDP pretreatment 72 h, day 8",significantly decreased
same,virus replication (plaque number),"HCMV Towne; shIFN-β cells, MDP pretreatment 72 h, day 8",failed to restrict virus replication
